{
  "source": "patent US10597380B2",
  "about": "“Pyridazinone-based broad spectrum anti-influenza inhibitors” (Hoffmann-La Roche Inc., priority 2017, dated 2020)",
  "data": [
    {"test_system": "Influenza A/WSN/33-Luciferase virus", "test": "microbe, parasite or virus in culture", "format": "cell-based", "conditions": "A549, 72 h, luciferase signal three days later, read-out: IC50 antiviral activity (Luciferase reporter assay)", "units": {"IC50": "nM"}, "values": [
      {"smiles": "CC(C)c1cc(Nc2nn(-c3ccc(OC(F)(F)F)cc3)c(=O)c3c2CCC3)c(=O)n(C)c1", "note": "[Example 36, 1-[(5-isopropyl-1-methyl-2-oxo-3-pyridyl)amino]-3-[4-(trifluoromethoxy)phenyl]-6,7-dihydro-5H-cyclopenta[d]pyridazin-4-one]", "IC50": 579},
      {"smiles": "CN(C)C(=O)CCn1cccc(Nc2nn(-c3ccc(OC(F)(F)F)cc3)c(=O)c3ccccc23)c1=O", "note": "[Example 96, N,N-dimethyl-3-[2-oxo-3-[[4-oxo-3-[4-(trifluoromethoxy)phenyl]phthalazin-1-yl]amino]-1-pyridyl]propanamide]", "IC50": 42},
      {"smiles": "Cn1cccc(Nc2nn(-c3ccc(OC(F)(F)F)cc3)c(=O)c3c2CC(C)(C)C3)c1=O", "note": "[Example 61, 6,6-dimethyl-1-[(1-methyl-2-oxo-3-pyridyl)amino]-3-[4-(trifluoromethoxy)phenyl]-5,7-dihydrocyclopenta[d]pyridazin-4-one]", "IC50": 60},
      {"smiles": "Cn1cccc(Nc2nn(-c3ccc(OC(F)(F)F)cc3)c(=O)c3cc(CO)ccc23)c1=O", "note": "[Example 141, 7-(hydroxymethyl)-4-[(1-methyl-2-oxo-3-pyridyl)amino]-2-[4-(trifluoromethoxy)phenyl]phthalazin-1-one]", "IC50": 12},
      {"smiles": "CC(C)(Cn1cccc(Nc2nn(-c3ccc(OC(F)(F)F)cc3)c(=O)c3ccccc23)c1=O)C(=O)O", "note": "[Example 111, 2,2-dimethyl-3-[2-oxo-3-[[4-oxo-3-[4-(trifluoromethoxy)phenyl]phthalazin-1-yl]amino]-1-pyridyl]propanoic acid]", "IC50": 1510},
      {"smiles": "CC(C)(C)c1ccc(-n2nc(Nc3ccc[nH]c3=O)c3ccccc3c2=O)cc1", "note": "[Example 15, 2-(4-tert-butylphenyl)-4-[(2-oxo-1H-pyridin-3-yl)amino]phthalazin-1-one]", "IC50": 132},
      {"smiles": "CNC(=O)CCCn1cccc(Nc2nn(-c3ccc(OC(F)(F)F)cc3)c(=O)c3c2CCC3)c1=O", "note": "[Example 105, N-methyl-4-[2-oxo-3-[[4-oxo-3-[4-(trifluoromethoxy)phenyl]-6,7-dihydro-5H-cyclopenta[d]pyridazin-1-yl]amino]-1-pyridyl]butanamide]", "IC50": 15},
      {"smiles": "O=c1c(Nc2nn(-c3ccc(OC(F)(F)F)cc3)c(=O)c3c2CCC3)cncn1CCO", "note": "[Example 47, 1-[[1-(2-hydroxyethyl)-6-oxo-pyrimidin-5-yl]amino]-3-[4-(trifluoromethoxy)phenyl]-6,7-dihydro-5H-cyclopenta[d]pyridazin-4-one]", "IC50": 71},
      {"smiles": "Cn1cccc(Nc2nn(-c3ccc(OC(F)(F)F)cc3)c(=O)c3c2COCC3)c1=O", "note": "[Example 63, 4-[(1-methyl-2-oxo-3-pyridyl)amino]-2-[4-(trifluoromethoxy)phenyl]-7,8-dihydro-5H-pyrano[3,4-d]pyridazin-1-one]", "IC50": 33},
      {"smiles": "Cc1cc(Nc2nn(-c3ccc(OC(F)(F)F)cc3)c(=O)c3c2CCC3)c(=O)n(C)n1", "note": "[Example 29, 1-[(2,6-dimethyl-3-oxo-pyridazin-4-yl)amino]-3-[4-(trifluoromethoxy)phenyl]-6,7-dihydro-5H-cyclopenta[d]pyridazin-4-one]", "IC50": 22},
      {"smiles": "COc1ccc(-n2nc(Nc3cc(F)cn(C)c3=O)c3c(c2=O)CCC3)cn1", "note": "[Example 57, 1-[(5-fluoro-1-methyl-2-oxo-3-pyridyl)amino]-3-(6-methoxy-3-pyridyl)-6,7-dihydro-5H-cyclopenta[d]pyridazin-4-one]", "IC50": 352},
      {"smiles": "Cn1cccc(Nc2nn(-c3ccc(OC(F)F)cc3)c(=O)c3c2CCC3)c1=O", "note": "[Example 59, 3-[4-(difluoromethoxy)phenyl]-1-[(1-methyl-2-oxo-3-pyridyl)amino]-6,7-dihydro-5H-cyclopenta[d]pyridazin-4-one]", "IC50": 137},
      {"smiles": "COC(=O)[C@@H]1CCCN1CCn1cccc(Nc2nn(-c3ccc(OC(F)(F)F)cc3)c(=O)c3ccccc23)c1=O", "note": "[Example 79, methyl (2S)-1-[2-[2-oxo-3-[[4-oxo-3-[4-(trifluoromethoxy)phenyl]phthalazin-1-yl]amino]-1-pyridyl]ethyl]pyrrolidine-2-carboxylate]", "IC50": 32}
    ]}
  ]
}
